One compound from patent publication US9301954B2, “Pharmaceutical composition for the prevention or treatment of osteoarthritis containing rebamipide as an active ingredient” (HANLIM PHARMACEUTICAL CO., LTD, priority 2010, dated 2016) can be followed below.

This assay deals with MIA-induced osteoarthritis rats. Put plainly: Therapeutic efficacy of oral rebamipide in monosodium iodoacetate (MIA)-induced osteoarthritis in rats. In kind it is in vivo, Wistar rats. As for the experimental part:
About 5 week old male Wistar rats were used. Monosodium iodoacetate (MIA) was dissolved in a physiological saline; and then administered to the rats in the dose of 4 mg/50 μl via the right knee thereof, so as to induce osteoarthritis. The rats were divided into 3 groups, each having 5 rats. The first group (non-arthritis) was a non-treated group, i.e., a normal control group. The second group (MIA) was an osteoarthritis-induced group through the MIA administration. The rats of the third group (MIA+Rebamipide) were administered with the MIA to induce osteoarthritis; and then orally administered with rebamipide every day for 7 days. At the 7th day after the MIA induction, the femurs and the tibias were isolated from the rats of each group and then observed under a dissecting microscope. After H&E staining, the knee joint sites were observed through a low-magnification lens. In the results, the nucleus is shown in blue-violet color and the cytoplasm is shown in pink color. […] The knee joints were stained with Safranin O, which can show losses of the cartilage proteoglycans. The tartrate-resistant acid phosphatase (TRAP) staining for osteoclasts, was performed at 37° C. for 30 minutes, using a leukocyte acid phosphatase kit (Sigma 387-A, USA). The TRAP-positive cells were shown in red-violet color. The multinucleated cells (having above 3 nuclei) were considered as TRAP-positive cells (osteoclasts), which were counted under an optical microscope.

Molecules are shown by their SMILES. Entries after “also recorded” stand apart in the source; their conditions may differ.

Turning to `O=C(NC(Cc1cc(=O)[nH]c2ccccc12)C(=O)O)c1ccc(Cl)cc1` (stereo not drawn) [rebamipide], where the note is “MIA+Rebamipide group in comparison with the MIA group, oral, 7 days”, the “Inflammation by H&E staining” value is recorded as “favorably changed”. The “Cartilage damage by histological analyses (TRAP, safranin O, H&E staining)” value (MIA+Rebamipide group vs MIA group, oral, 7 days) is on record as “remained intact without destruction”. Besides, for the setting “MIA+Rebamipide group, oral, 7 days, similar to the non-arthritis group”, the “Safranin O staining of femoral cartilage site (proteoglycan loss, surface)” value is “smooth and shown in strong orange-red color”. In addition, the “Cartilage damage of isolated femurs and tibias observed under a dissecting microscope” value (male Wistar rats, MIA 4 mg/50 μl via right knee, rebamipide orally every day for 7 days, 7th day after MIA induction) was “significantly inhibited; also recorded: little damages in the cartilage sites”. Besides, the “Number of osteoclasts in the tibial subchondral bone via TRAP staining” value (rebamipide group in comparison with the MIA group, oral, 7 days) is “significantly reduced”. The “Histology grade evaluation (standards of Table 1, FIG. 3): cartilage surface and safranin O loss” value (rebamipide-treated group, oral, 7 days) is reported as “only a little loss of safranin O in the cartilage site”.
